Source: ChEMBL document CHEMBL1131745, “Novel C-ring analogues of 20(S)-camptothecin-part-2: synthesis and in vitro cytotoxicity of 5-C-substituted 20(S)-camptothecin analogues” (1999)

Experiments:
Assay type in all cases: functional
ACHN = assay: In vitro anti-cancer activity against ACHN(Renal) human tumor cell line
DU-145 = assay: In vitro anti-cancer activity against DU-145 (Prostate) human tumor cell line
HOP-62 = assay: In vitro anti-cancer activity against HOP 62(Lung) human tumor cell line
OVCAR-8 [1] = assay: In vitro anti-cancer activity against OVCAR 8(Ovarian) human tumor cell lines
SF-268 [2] = assay: In vitro anti-cancer activity against SF 268(CNS) human tumor cell lines
UACC-62 = assay: In vitro anti-cancer activity against UACC 62(Melanoma) human tumor cell line
NCI/ADR-RES [3] = assay: In vitro anti-cancer activity against MCF-7/ADR (Breast) human tumor cell lines
NCI/ADR-RES [4] = assay: In vitro anti-cancer activity against MCF-7/ADR (Breast) human tumor cell line
OVCAR-8 [5] = assay: In vitro anti-cancer activity against OVCAR 8(Ovarian) human tumor cell line
SF-268 [6] = assay: In vitro anti-cancer activity against SF 268(CNS) human tumor cell line

`CC[C@@]1(O)C(=O)OCc2c1cc1n(c2=O)C(CC(=O)OC)c2cc3cc([N+](=O)[O-])ccc3nc2-1` (stereo not given in full) showed a GI50 (ACHN) of 4610 nM, a GI50 (DU-145) of 8510 nM and a GI50 (HOP-62) of 5250 nM. For the same compound, the GI50 (OVCAR-8 [1]) was 12600 nM, the GI50 (SF-268 [2]) was 26200 nM and the GI50 (UACC-62) was 4040 nM.
For `CC[C@@]1(O)C(=O)OCc2c1cc1n(c2=O)C(CC(=O)OC)c2cc3ccccc3nc2-1` (stereo not given in full), the GI50 (ACHN) was 5290 nM, the GI50 (DU-145) was 15500 nM and the GI50 (NCI/ADR-RES [3]) was 7.2 µM. It also gave a GI50 (OVCAR-8 [1]) of 16300 nM, a GI50 (SF-268 [2]) of 18600 nM and a GI50 (UACC-62) of 6440 nM.
With `CC[C@@]1(O)C(=O)OCc2c1cc1n(c2=O)C(CC(=O)OCCF)c2cc3ccccc3nc2-1` (stereo not given in full) the GI50 (ACHN) was 80 nM, the GI50 (DU-145) was 100 nM and the GI50 (HOP-62) was greater than 30000 nM. The GI50 (NCI/ADR-RES [3]) was 6 µM, the GI50 (OVCAR-8 [1]) was 40 nM and the GI50 (SF-268 [2]) was 50 nM. It also gave a GI50 (UACC-62) of 200 nM.
`CC[C@@]1(O)C(=O)OCc2c1cc1n(c2=O)C(CC(N)=O)c2cc3ccccc3nc2-1` (stereo not given in full) gave a GI50 (ACHN) of 16000 nM, a GI50 (DU-145) of 12000 nM and a GI50 (HOP-62) greater than 30000 nM. It also gave a GI50 (OVCAR-8 [1]) of 20000 nM, a GI50 (SF-268 [2]) of 29000 nM and a GI50 (UACC-62) of 16000 nM.
For `CC[C@@]1(O)C(=O)OCc2c1cc1n(c2=O)C(CC(=O)OCC(F)(F)F)c2cc3ccccc3nc2-1` (stereo not given in full), the GI50 (ACHN) was 170 nM, the GI50 (DU-145) was 280 nM and the GI50 (HOP-62) was 130 nM. It also gave a GI50 (NCI/ADR-RES [3]) of 0.5 µM, a GI50 (OVCAR-8 [1]) of 1120 nM and a GI50 (SF-268 [2]) of 140 nM. For the same compound, the GI50 (UACC-62) was 300 nM.
With `CC[C@@]1(O)C(=O)OCc2c1cc1n(c2=O)C(CC(=O)N2CCCC2)c2cc3ccccc3nc2-1` (stereo not given in full) the GI50 (ACHN) was 210 nM, the GI50 (DU-145) was 450 nM and the GI50 (HOP-62) was 290 nM. It also gave a GI50 (NCI/ADR-RES [3]) of 0.79 µM, a GI50 (OVCAR-8 [1]) of 760 nM and a GI50 (UACC-62) of 410 nM.
Compound `CC[C@@]1(O)C(=O)OCc2c1cc1n(c2=O)C(CC(C)=O)c2cc3c(O)cccc3nc2-1` (stereo not given in full) has a GI50 (ACHN) of 1000 nM, a GI50 (DU-145) of 2000 nM and a GI50 (HOP-62) of 4000 nM. It also gave a GI50 (NCI/ADR-RES [3]) of 5 µM, a GI50 (OVCAR-8 [1]) of 3500 nM and a GI50 (SF-268 [2]) of 4000 nM. It also gave a GI50 (UACC-62) of 7500 nM.
`CC[C@@]1(O)C(=O)OCc2c1cc1n(c2=O)C(CC(=O)OC)c2cc3c(O)cccc3nc2-1` (stereo not given in full) gave a GI50 (ACHN) of 440 nM, a GI50 (DU-145) of 600 nM and a GI50 (HOP-62) of 2090 nM. The GI50 (OVCAR-8 [1]) was 1720 nM, the GI50 (SF-268 [2]) was 2320 nM and the GI50 (UACC-62) was 1720 nM.
Work on `CC[C@@]1(O)C(=O)OCc2c1cc1n(c2=O)C(CC(=O)N2CCCCC2)c2cc3ccccc3nc2-1` (stereo not given in full) yielded a GI50 (ACHN) of 340 nM, a GI50 (DU-145) of 320 nM and a GI50 (HOP-62) of 530 nM. It also gave a GI50 (NCI/ADR-RES [3]) of 3.03 µM, a GI50 (OVCAR-8 [1]) of 3570 nM and a GI50 (SF-268 [2]) of 650 nM. It also gave a GI50 (UACC-62) of 330 nM.
For `CC[C@@]1(O)C(=O)OCc2c1cc1n(c2=O)C(CC(=O)OCCO)c2cc3ccccc3nc2-1` (stereo not given in full), the GI50 (ACHN) was 10000 nM, the GI50 (DU-145) was 1000 nM and the GI50 (HOP-62) was greater than 30000 nM. The GI50 (NCI/ADR-RES [3]) was 6 µM, the GI50 (OVCAR-8 [1]) was 250 nM and the GI50 (SF-268 [2]) was 1000 nM. It also gave a GI50 (UACC-62) of 200 nM.
Compound `CC[C@@]1(O)C(=O)OCc2c1cc1n(c2=O)C(CC(C)=O)c2cc3cc([N+](=O)[O-])ccc3nc2-1` (stereo not given in full) has a GI50 (ACHN) of 170 nM, a GI50 (DU-145) of 280 nM and a GI50 (HOP-62) of 130 nM. The GI50 (NCI/ADR-RES [3]) was 0.5 µM, the GI50 (OVCAR-8 [1]) was 1120 nM and the GI50 (SF-268 [2]) was 140 nM. It also gave a GI50 (UACC-62) of 300 nM.
For `CC[C@@]1(O)C(=O)OCc2c1cc1n(c2=O)C(CC(C)=O)c2cc3ccccc3nc2-1` (stereo not given in full), the GI50 (ACHN) was 3030 nM, the GI50 (DU-145) was 3920 nM and the GI50 (NCI/ADR-RES [3]) was 3.88 µM. It also gave a GI50 (OVCAR-8 [1]) of 7390 nM, a GI50 (SF-268 [2]) of 7150 nM and a GI50 (UACC-62) of 3540 nM.
For `CC[C@@]1(O)C(=O)OCc2c1cc1n(c2=O)Cc2cc3c(CN(C)C)c(O)ccc3nc2-1` [TOPOTECAN], the GI50 (ACHN) was 40 nM, the GI50 (DU-145) was 40 nM and the GI50 (HOP-62) was 50 nM. For the same compound, the GI50 (NCI/ADR-RES [4]) was 70 nM, the GI50 (OVCAR-8 [5]) was 200 nM and the GI50 (SF-268 [6]) was 80 nM. For the same compound, the GI50 (UACC-62) was 30 nM.
